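96-well plates; 48 h exposure; 5 concentrations. Endpoints by linear interpolation between flanking doses. Not reached: highest tested concentration assigned. TGI is the concentration that stops growth completely.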
Experiments:
Assay in all cases: NCI anticancer screen, dose series, 48 h
[1] = test system: SR leukemia
[2] = test system: UACC-257 melanoma
[3] = test system: EKVX NSCLC
[4] = test system: A498 renal
[5] = test system: MALME-3M melanoma
[6] = test system: NCI-H460 lung
[7] = test system: OVCAR-8 ovarian
[8] = test system: LOX IMVI melanoma
[9] = test system: SK-MEL-5 melanoma
[10] = test system: HCT-116 colon
[11] = test system: K-562 leukemia
[12] = test system: UACC-62 melanoma
[13] = test system: IGROV1 ovarian
[14] = test system: MCF7 breast
[15] = test system: NCI-H226 lung
[16] = test system: HT29 colon
[17] = test system: A549 NSCLC
[18] = test system: SF-268 CNS
[19] = test system: SK-MEL-28 melanoma
[20] = test system: PC-3 prostate
[21] = test system: HCT-15 colon
[22] = test system: OVCAR-3 ovarian
[23] = test system: ACHN renal
[24] = test system: OVCAR-5 ovarian
[25] = test system: HCC-2998 colon
[26] = test system: NCI/ADR-RES ovarian
[27] = test system: OVCAR-4 ovarian
[28] = test system: UO-31 renal
[29] = test system: T-47D breast
[30] = test system: SNB-75 CNS
[31] = test system: KM12 colon
[32] = test system: SN12C renal
[33] = test system: TK-10 renal
[34] = test system: MDA-MB-231 breast
[35] = test system: U251 CNS
[36] = test system: M14 melanoma
[37] = test system: RPMI-8226 leukemia
[38] = test system: COLO 205 colon
[39] = test system: MOLT-4 leukemia
[40] = test system: SNB-19 CNS
[41] = test system: SF-295 CNS
[42] = test system: MDA-MB-435
[43] = test system: NCI-H522 lung
[44] = test system: HS 578T breast
[45] = test system: NCI-H23 lung
[46] = test system: CAKI-1 renal
[47] = test system: SK-MEL-2 melanoma
[48] = test system: SW-620 colon
[49] = test system: DU-145 prostate
[50] = test system: SF-539 CNS
[51] = test system: 786-0 renal
[52] = test system: HL-60(TB) leukemia
[53] = test system: HOP-62 NSCLC

N#CC(c1ccccc1)c1cccc2ccccc12 (stereo not drawn)
TGI [1]: 39.4 µM | TGI [2]: 67.3 µM | TGI [3]: > 100 µM | TGI [4]: 76.5 µM | TGI [5]: 50.7 µM | TGI [6]: > 100 µM | TGI [7]: 76.4 µM | TGI [8]: 50.8 µM | TGI [9]: 34.3 µM | TGI [10]: > 100 µM | TGI [11]: > 100 µM | TGI [12]: > 100 µM | TGI [13]: > 100 µM | TGI [14]: 92.4 µM | TGI [15]: > 100 µM | TGI [16]: > 100 µM | TGI [17]: 65.1 µM | TGI [18]: 98.8 µM | TGI [19]: > 100 µM | TGI [20]: 71.6 µM | TGI [21]: > 100 µM | TGI [22]: 86.6 µM | TGI [23]: > 100 µM | TGI [24]: > 100 µM | TGI [25]: 81.8 µM | TGI [26]: > 100 µM | TGI [27]: > 100 µM | TGI [28]: > 100 µM | TGI [29]: > 100 µM | TGI [30]: > 100 µM | TGI [31]: 66 µM | TGI [32]: > 100 µM | TGI [33]: > 100 µM | TGI [34]: > 100 µM | TGI [35]: > 100 µM | TGI [36]: 96.4 µM | TGI [37]: 67.9 µM | TGI [38]: > 100 µM | TGI [39]: 57.6 µM | TGI [40]: > 100 µM | TGI [41]: > 100 µM | TGI [42]: 44.1 µM | TGI [43]: 53.9 µM | TGI [44]: > 100 µM | TGI [45]: > 100 µM | TGI [46]: 52.1 µM | TGI [47]: 56.2 µM | TGI [48]: > 100 µM | TGI [49]: > 100 µM | TGI [50]: > 100 µM | TGI [51]: > 100 µM | TGI [52]: 57.7 µM | TGI [53]: > 100 µM

From PubChem BioAssay (NCI)
